Measurements reported in ChEMBL document CHEMBL4828754, “Salicinoyl Quinic Acids and Their Prostaglandin E2 Production Inhibitory Activities from the Fruits of Casearia grewiifolia” (J Nat Prod, 2021).
Active and inactive are the calls of the source. No cut-off for these calls is given here.

tested on: not listed separately; experiment: Inhibition of ultraviolet B-irradiation upregulated of prostaglandin E2 production in human HaCaT cells measured after 2 hrs by ELISA; format: functional, cell-based; conditions: light or radiation study

SMILES | IC50
CC(=O)Oc1ccccc1C(=O)O [ASPIRIN] | 30.4 µM
COC(=O)[C@]1(O)C[C@@H](O)[C@@H](OC(=O)/C=C/c2ccccc2)[C@H](O)C1 | 28.8 µM
Oc1ccc(/C=C/c2cc(O)cc(O)c2)cc1 [RESVERATROL] | 35.1 µM
CC(=O)O[C@@H]1C[C@](O)(C(=O)OCc2ccccc2O[C@@H]2O[C@H](CO)[C@@H](O)[C@H](O)[C@H]2O)C[C@@H](OC(C)=O)[C@H]1OC(=O)/C=C/c1ccccc1 | 20.5 µM

tested on: HaCaT; experiment: Inhibition of ultraviolet B-irradiation upregulated of prostaglandin E2 production in human HaCaT cells at 10 uM measured after 2 hrs by ELISA relative to control; format: functional, cell-based; conditions: not given

SMILES | inhibition
CC(=O)O[C@@H]1[C@H](OC(C)=O)C[C@@](OC(=O)/C=C/c2ccccc2)(C(=O)OCc2ccccc2O[C@@H]2O[C@H](CO)[C@@H](O)[C@H](O)[C@H]2O)C[C@H]1O[C@@H]1O[C@H](CO)[C@@H](O)[C@H](O)[C@H]1O | Active
COC(=O)[C@]1(O)C[C@@H](O)[C@@H](OC(=O)c2ccccc2)[C@H](O[C@@H]2O[C@@H](C)[C@H](O)[C@@H](O)[C@H]2O)C1 | Active
CC(=O)O[C@@H]1C[C@](O)(C(=O)OCc2ccccc2O[C@@H]2O[C@H](CO)[C@@H](O)[C@H](O)[C@H]2O)C[C@@H](O)[C@H]1OC(=O)/C=C/c1ccccc1 | Active
OCc1ccccc1O[C@@H]1O[C@H](CO)[C@@H](O)[C@H](O)[C@H]1O | inactive
